Laboratory results from US9085576B2 (AMGEN INC., priority 2013, dated 2015).
Where a name gives a salt, the structure may show the parent alone. Read-outs that look alike come from different tables or passages of the source.

Assays:
[1] = target: Beta Secretase enzyme (BACE) (Homo sapiens (Human), UniProt P56817); assay: In vitro enzymatic BACE FRET assay; format: biochemical; settings: read-out: BACE1 Enzyme assay IC50
Cathepsin D (Cat D) = Cathepsin D (Cat D) (Homo sapiens (Human), UniProt P07339); assay: In vitro enzymatic Cathepsin D (Cat D) FRET assay; format: biochemical
Abeta 40 = assay: In vivo inhibition of beta-secretase: Abeta 40 reduction in CSF and brain of the rat; settings: after 4 hrs; for % reduction of rat CSF levels at 10 pmk / % reduction of rat brain levels at 10 mpk: 10 mpk
BACE = BACE (Homo sapiens (Human), UniProt P56817); assay: In vitro BACE cell-based assay (Aβ40 in conditioned medium, sandwich ELISA)
Sequence of BACE (P56817 46-501, species assumed): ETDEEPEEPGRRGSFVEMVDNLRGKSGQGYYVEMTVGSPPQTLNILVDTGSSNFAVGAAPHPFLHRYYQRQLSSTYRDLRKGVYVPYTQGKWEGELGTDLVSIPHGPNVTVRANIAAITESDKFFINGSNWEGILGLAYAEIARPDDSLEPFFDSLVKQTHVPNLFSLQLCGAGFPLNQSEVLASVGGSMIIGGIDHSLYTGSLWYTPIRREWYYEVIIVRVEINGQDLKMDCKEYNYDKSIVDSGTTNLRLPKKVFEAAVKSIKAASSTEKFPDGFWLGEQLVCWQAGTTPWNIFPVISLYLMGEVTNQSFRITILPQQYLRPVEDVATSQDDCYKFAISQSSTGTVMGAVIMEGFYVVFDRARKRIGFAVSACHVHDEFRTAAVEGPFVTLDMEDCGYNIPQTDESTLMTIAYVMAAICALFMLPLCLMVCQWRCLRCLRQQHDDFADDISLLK

Sequence of Beta Secretase enzyme (BACE) (P56817 46-501): as the sequence (P56817 46-501, species assumed) above
Sequence of Cathepsin D (Cat D) (P07339 65-412, species assumed): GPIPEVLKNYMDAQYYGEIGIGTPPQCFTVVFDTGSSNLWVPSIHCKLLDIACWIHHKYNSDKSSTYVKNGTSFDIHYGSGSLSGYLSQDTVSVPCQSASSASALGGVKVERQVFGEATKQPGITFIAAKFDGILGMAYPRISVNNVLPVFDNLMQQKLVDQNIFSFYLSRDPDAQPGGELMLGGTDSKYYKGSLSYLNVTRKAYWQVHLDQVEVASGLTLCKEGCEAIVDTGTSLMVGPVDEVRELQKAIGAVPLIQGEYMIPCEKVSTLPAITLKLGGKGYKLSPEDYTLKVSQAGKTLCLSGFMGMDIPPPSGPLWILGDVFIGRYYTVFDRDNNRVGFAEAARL

| Compound | IC50 [1] [µM] | IC50 (Cathepsin D (Cat D); Cat D FRET assay, first procedure, read-out: Cat D IC50) [µM] | IC50 (Cathepsin D (Cat D); read-out: CatD IC50) [µM] | IC50 (BACE) [µM] | % reduction of rat CSF levels at 10 pmk (Abeta 40; Abeta 40 in rat CSF) [%] | % reduction of rat brain levels at 10 mpk (Abeta 40; Abeta 40 in rat brain) [%] | % reduction of rat CSF levels (3 mpk) (Abeta 40; Abeta 40 in rat CSF, 3 mpk) | % reduction of rat brain levels (3 mpk) (Abeta 40; Abeta 40 in rat brain, 3 mpk) |
| --- | --- | --- | --- | --- | --- | --- | --- | --- |
| Cc1cc(Cl)cnc1C(=O)Nc1ccc(F)c([C@@]2(C(F)F)N=C(N)O[C@@H]3C[C@@H]32)c1 [Example 43, N-(3-((1R,5S,6R)-3-amino-5-(difluoromethyl)-2-oxa-4-azabicyclo[4.1.0]hept-3-en-5-yl)-4-fluorophenyl)-5-chloro-3-methylpicolinamide] | 0.0225 | > 400 | 596 | 0.0314 | 70 | 59 | – | – |
| Cc1cc(C#N)cnc1C(=O)Nc1ccc(F)c([C@@]2(C(F)F)N=C(N)O[C@@H]3C[C@@H]32)c1 [Example 44, N-(3-((1R,5S,6R)-3-amino-5-(difluoromethyl)-2-oxa-4-azabicyclo[4.1.0]hept-3-en-5-yl)-4-fluorophenyl)-5-cyano-3-methylpicolinamide] | 0.0142 | – | 376 | 0.017 | 80 | 73 | 69 (3 mpk) % | 52 (3 mpk) % |
| COc1cc(C#N)cnc1C(=O)Nc1ccc(F)c([C@@]2(C(F)F)N=C(N)O[C@@H]3C[C@@H]32)c1 [Example 45, N-(3-((1R,5S,6R)-3-amino-5-(difluoromethyl)-2-oxa-4-azabicyclo[4.1.0]hept-3-en-5-yl)-4-fluorophenyl)-5-cyano-3-methoxypicolinamide] | 0.0555 | – | 3450 | 0.0372 | 31 | 6 | – | – |
| COc1cnc(C(=O)Nc2ccc(F)c([C@@]3(C(F)F)N=C(N)O[C@@H]4C[C@@H]43)c2)c(Cl)c1 [Example 70, N-(3-((1R,5S,6R)-3-amino-5-(difluoromethyl)-2-oxa-4-azabicyclo[4.1.0]hept-3-en-5-yl)-4-fluorophenyl)-3-chloro-5-methoxypicolinamide] | 0.0568 | – | 379 | 0.0386 | 65 | 51 | – | – |
| NC1=N[C@@](c2cc(NC(=O)c3ccc(Br)cn3)ccc2F)(C(F)F)[C@H]2C[C@H]2O1 [Example 74, N-(3-((1R,5S,6R)-3-amino-5-(difluoromethyl)-2-oxa-4-azabicyclo[4.1.0]hept-3-en-5-yl)-4-fluorophenyl)-5-bromopicolinamide] | 0.0247 | – | 282 | 0.0181 | 56 | 46 | – | – |
| NC1=N[C@@](c2cc(NC(=O)c3ccc(Cl)cn3)ccc2F)(C(F)F)[C@H]2C[C@H]2O1 [Example 76, N-(3-((1R,5S,6R)-3-amino-5-(difluoromethyl)-2-oxa-4-azabicyclo[4.1.0]hept-3-en-5-yl)-4-fluorophenyl)-5-chloropicolinamide] | 0.0266 | – | 684 | 0.0302 | 64 | 60 | – | – |
| C#CCOc1cnc(C(=O)Nc2ccc(F)c([C@@]3(C(F)F)N=C(N)O[C@@H]4C[C@@H]43)c2)cn1 [Example 95, N-(3-(((1R,5S,6R)-3-amino-5-(difluoromethyl)-2-oxa-4-azabicyclo[4.1.0]hept-3-en-5-yl)-4-fluorophenyl)-5-(prop-2-yn-1-yloxy)pyrazine-2-carboxamide trifluoroacetate] | 0.0035 | – | 143 | 0.008 | 82 | 77 | – | – |

The next lines start with results.

| IC50 [1] [µM] | IC50 (Cathepsin D (Cat D); Cat D FRET assay, first procedure, read-out: Cat D IC50) [µM] | IC50 (Cathepsin D (Cat D); read-out: CatD IC50) [µM] | IC50 (BACE) [µM] | Compound | % reduction of rat CSF levels at 10 pmk (Abeta 40; Abeta 40 in rat CSF) [%] | % reduction of rat brain levels at 10 mpk (Abeta 40; Abeta 40 in rat brain) [%] | % reduction of rat CSF levels (3 mpk) (Abeta 40; Abeta 40 in rat CSF, 3 mpk) | % reduction of rat brain levels (3 mpk) (Abeta 40; Abeta 40 in rat brain, 3 mpk) |
| --- | --- | --- | --- | --- | --- | --- | --- | --- |
| 0.0136 | – | 913 | 0.0213 | NC1=N[C@](CF)(c2cc(NC(=O)c3cnc(OCC(F)(F)F)cn3)cc(Cl)c2F)[C@H]2C[C@H]2O1 [Example 90, N-(3-((1R,5S,6R)-3-amino-5-(fluoromethyl)-2-oxa-4-azabicyclo[4.1.0]hept-3-en-5-yl)-5-chloro-4-fluorophenyl)-5-(2,2,2-trifluoroethoxy)pyrazine-2-carboxamide] | 48 | 31 | – | – |
| 0.001 | – | 467 | 0.0033 | CC#CCOc1cnc(C(=O)Nc2ccc(F)c([C@@]3(C(F)F)N=C(N)O[C@@H]4C[C@@H]43)c2)cn1 [Example 96, N-(3-((1R,5S,6R)-3-amino-5-(difluoromethyl)-2-oxa-4-azabicyclo[4.1.0]hept-3-en-5-yl)-4-fluorophenyl)-5-(but-2-yn-1-yloxy)pyrazine-2-carboxamide trifluoroacetate] | 24 | 1 | – | – |
| 0.0227 | – | 1050 | 0.0195 | NC1=N[C@@](c2cc(NC(=O)c3ccc(Cl)cn3)ccc2Cl)(C(F)F)[C@H]2C[C@H]2O1 [Example 99, N-(3-((1R,5S,6R)-3-amino-5-(difluoromethyl)-2-oxa-4-azabicyclo[4.1.0]hept-3-en-5-yl)-4-chlorophenyl)-5-chloropicolinamide] | 63 | 58 | – | – |
